In paper PMC6164518 (Marine Drugs, 2018):

What was measured:
Electric eel AChE = biological target: T1, Electric eel AChE (Electrophorus electricus, UniProt O42275); experiment: biochemical; conditions: AChE from electric eel; mean ± SD from three separate experiments; read-out: IC50 EeAChE
T1 construct: purchased Sigma-Aldrich (Steinheim, Germany)
Experimental: (§1) The AChE and BChE inhibitory activities of compounds were determined by using a slightly modified Ellman’s method. Electric eel AChE, equine serum BChE, 5,5′-dithiobis(2-nitrobenzoic acid) (DTNB), phosphate buffer solution (PBS, pH 8.0), acetylthiocholine (ATC) iodide, and butyrylthiocholine (BUC) iodide were purchased from Sigma-Aldrich (Steinheim, Germany). […] Enzyme solutions were prepared at 2.0 U/mL in 2-mL aliquots. The assay medium consisted of 10 μL of enzyme, 40 μL of PBS, 20 μL of 0.01 M DTNB, and 10 μL of tested compound. Assayed solutions of tested compounds were pre-incubated with corresponding ChE for 5 min. The reaction was initiated by the addition of 20 μL of 0.01 M substrate (ATC or BUC). The activity was determined by measuring the increase in absorbance at 410 nm at 37 °C in 2-min intervals using Tecan Spark multimode microplate reader (Mannedorf, Switzerland). The percentage of inhibition (I) was calculated from the measured data as follows: I = (Ac − Ai)/Ac × 100%, where Ai and Ac represent the change in the absorbance in the presence of an inhibitor and without an inhibitor, respectively.

equine serum BChE = biological target: T2, equine serum BChE (Equus caballus, UniProt P81908); experiment: biochemical; conditions: BChE from equine serum; mean ± SD from three separate experiments; read-out: IC50 eqBChE
T2 construct: purchased Sigma-Aldrich (Steinheim, Germany); host or cells: equine serum
Experimental: as §1

Aβ1–42 = biological target: T3, Aβ1–42 (Homo sapiens, UniProt P05067); experiment: Inhibition of self-induced Aβ1–42 aggregation (ThT fluorescence); assay type: biochemical; conditions: Aβ1–42 2.5 µM, compound 10 µM, mean ± SD of three experiments
T3 construct: pre-treated Aβ1–42 (GL Biochem Ltd., Shanghai, China) was dissolved in DMSO; purchased GL Biochem Ltd., Shanghai, China
Experimental: In order to investigate the inhibition of compounds on Aβ1–42 self-aggregation, a ThT-based fluorometric assay was performed. 1,1,1,3,3,3-hexafluoro-2-propanol (HFIP) pre-treated Aβ1–42 (GL Biochem Ltd., Shanghai, China) was dissolved in DMSO to make a 200 µM stock solution. The stock solution was centrifuged at the speed of 13,500 rpm for 10 min. The above supernatant was used for experiments. The tested compounds were dissolved in DMSO at concentrations of 0.8 mM. A screening assay for the tested compounds to inhibit A aggregation was performed by measuring ThT fluorescence emission. Compounds (2 µL) and 2 µL of 200 µM Aβ1–42 were added into 76 µL of phosphate-buffered saline (PBS at pH 7.4) in a 96-well plate. After incubation for 24 h at room temperature, 80 µL of 5 µM of ThT solution (in 50 mM of glycine-NaOH at pH 8.5) was added to the reaction solution. Fluorescence emission was measured at 490 nm with an excitation wavelength of 450 nm on a Tecan Spark multimode microplate reader. […] The fluorescence intensities were compared, and the % inhibition was calculated by the following equation: 100 − [(Fi − Fb)/(Fo − Fb) × 100], where Fi, Fo and Fb are the fluorescence intensities obtained for Aβ aggregation in the presence of inhibitors Aβ1–42 and ThT; in the presence of Aβ1–42 and THT but no inhibitors; and the blanks containing ThT only.

in vitro = conditions: human
Experimental: Thus, to verify the hepatotoxicity of 1 and 12j, a 3-(4,5-dimethylthiazol-2-yl)-2,5-diphenyltetrazolium bromide (MTT) assay on the human hepatoma cell line (HepG2) was carried out.
The cytotoxicity of selected compounds was evaluated on HepG2 cells. Cells were inoculated into 96-well plates. After incubation for 24 h, the cells were treated with different concentrations of tested compounds for 24 h, and then were incubated with 10 μL of 3-(4,5-dimethylthiazol-2-yl)-2,5-diphenyltetrazolium bromide (MTT) at 37 °C for 2 h. The formazan dye product was measured by the absorbance at 490 nm on a Tecan Spark multimode microplate reader.

AChE = biological target: T4, AChE (Electrophorus electricus, UniProt O42275); experiment: Kinetic study of AChE inhibition (Lineweaver-Burk, Ellman's method); assay type: biochemical
T4 construct: purchased Sigma-Aldrich (Steinheim, Germany)
Experimental: (§2) Herein, compound 12j was selected as a representative prototype for kinetic assay to obtain information on the mode of action and binding site of this series of analogues. […].
(§3) The equilibrium constant for binding with the free enzyme (Ki) was obtained from the slope against inhibitor concentration. […].
(§4) Kinetic studies of inhibition on AChE and BChE were performed by using Ellman’s method as described above. […]
(§5) (B) Secondary plot of slopes versus 12j concentrations.

BChE = biological target: T5, BChE (Equus caballus, UniProt P81908); experiment: Kinetic study of BChE inhibition (Lineweaver-Burk, Ellman's method); assay type: biochemical
T5 construct: purchased Sigma-Aldrich (Steinheim, Germany); host or cells: equine serum
Experimental: as §2, §3, §4, §5

Aβ1–42 and AChE = biological target: T6, Aβ1–42 and AChE (Electrophorus electricus, UniProt O42275); experiment: Inhibition of AChE-induced Aβ1–42 aggregation (ThT fluorescence); assay type: biochemical; conditions: Aβ1–42 2.5 µM, AChE 0.2 U/mL, compound 8 µM; mean ± SD of three experiments
T6 construct: HFIP pre-treated Aβ1–42 (GL Biochem Ltd., shanghai, China) was dissolved in DMSO; purchased GL Biochem Ltd. (Aβ1–42)
Experimental: The stock solution was centrifuged at the speed of 13,500 rpm for 10 min. The above supernatant was used for experiments. […] Fluorescence emission was measured at 490 nm with an excitation wavelength of 450 nm on a Tecan Spark multimode microplate reader.

[1] = estimated from secondary plot of slopes versus inhibitor concentration

T2 sequence (P81908 whole entry): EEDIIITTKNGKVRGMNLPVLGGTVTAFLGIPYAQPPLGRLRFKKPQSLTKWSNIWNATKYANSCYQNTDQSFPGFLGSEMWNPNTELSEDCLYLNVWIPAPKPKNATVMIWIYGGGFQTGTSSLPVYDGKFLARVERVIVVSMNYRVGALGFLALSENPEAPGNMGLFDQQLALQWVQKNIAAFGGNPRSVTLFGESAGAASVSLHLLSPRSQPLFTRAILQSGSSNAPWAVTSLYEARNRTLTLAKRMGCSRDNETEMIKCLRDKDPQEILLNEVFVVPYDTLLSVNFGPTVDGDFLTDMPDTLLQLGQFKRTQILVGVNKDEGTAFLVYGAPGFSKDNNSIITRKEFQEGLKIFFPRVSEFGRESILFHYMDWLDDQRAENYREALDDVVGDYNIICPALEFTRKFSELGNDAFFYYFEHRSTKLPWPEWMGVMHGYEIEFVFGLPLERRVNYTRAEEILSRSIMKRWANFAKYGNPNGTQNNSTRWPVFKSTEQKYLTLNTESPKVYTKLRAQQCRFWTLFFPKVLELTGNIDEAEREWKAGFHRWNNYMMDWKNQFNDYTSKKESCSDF
T4 sequence (O42275 24-633): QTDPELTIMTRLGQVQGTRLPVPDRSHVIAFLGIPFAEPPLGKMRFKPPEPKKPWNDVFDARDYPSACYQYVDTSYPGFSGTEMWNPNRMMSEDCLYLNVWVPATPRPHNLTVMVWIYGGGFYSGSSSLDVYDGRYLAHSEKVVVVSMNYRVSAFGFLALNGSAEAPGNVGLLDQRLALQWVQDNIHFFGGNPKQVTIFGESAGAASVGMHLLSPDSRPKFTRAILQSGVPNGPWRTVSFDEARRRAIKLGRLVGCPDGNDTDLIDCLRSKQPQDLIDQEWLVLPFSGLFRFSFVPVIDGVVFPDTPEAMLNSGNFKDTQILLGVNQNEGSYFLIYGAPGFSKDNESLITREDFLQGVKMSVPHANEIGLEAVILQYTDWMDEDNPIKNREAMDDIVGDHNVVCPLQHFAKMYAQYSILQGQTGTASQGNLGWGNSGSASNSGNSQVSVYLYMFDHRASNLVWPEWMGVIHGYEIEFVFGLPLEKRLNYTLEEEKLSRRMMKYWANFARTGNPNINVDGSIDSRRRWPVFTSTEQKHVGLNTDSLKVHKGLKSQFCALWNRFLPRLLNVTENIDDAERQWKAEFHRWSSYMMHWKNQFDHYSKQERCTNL
T1 sequence (O42275 24-633): as above
T3 sequence (P05067 672-713 limits assumed): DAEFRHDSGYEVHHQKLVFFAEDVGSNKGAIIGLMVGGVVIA
T5 sequence (P81908 whole entry): as the sequence (P81908 whole entry) above
T6 sequence (O42275 24-633): as the sequence (O42275 24-633) above

SMILES: COc1c(Br)cc(CC(=O)NCCCCCCCCCCNc2c3c(nc4ccccc24)CCCC3)cc1Br [Compound 10h, 2-(3,5-Dibromo-4-methoxyphenyl)-N-(10-((1,2,3,4-tetrahydroacridin-9-yl)amino)decyl)acetamide]
- IC50 (Electric eel AChE): 0.638 ± 0.026 µM
- IC50 (equine serum BChE): 0.516 ± 0.037 µM

SMILES: O=C(Cc1ccc(F)c(Br)c1)NCCCCCCCNc1c2c(nc3ccccc13)CCCC2 [Compound 12i, 2-(3-Bromo-4-fluorophenyl)-N-(7-((1,2,3,4-tetrahydroacridin-9-yl)amino)heptyl)acetamide]
- IC50 (Electric eel AChE): 0.748 ± 0.017 µM
- IC50 (equine serum BChE): 0.049 ± 0.004 µM

SMILES: O=C(Cc1cc(Br)ccc1Br)NCCCCCCCNc1c2c(nc3ccccc13)CCCC2 [Compound 12g, 2-(2,5-Dibromophenyl)-N-(7-((1,2,3,4-tetrahydroacridin-9-yl)amino)heptyl)acetamide]
- IC50 (Electric eel AChE): 0.696 ± 0.052 µM
- IC50 (equine serum BChE): 0.062 ± 0.006 µM

SMILES: COc1c(Br)cc(CC(=O)NCCCCCCCCNc2c3c(nc4ccccc24)CCCC3)cc1Br [Compound 10g, 2-(3,5-Dibromo-4-methoxyphenyl)-N-(8-((1,2,3,4-tetrahydroacridin-9-yl)amino)octyl)acetamide]
- IC50 (Electric eel AChE): 0.427 ± 0.016 µM
- IC50 (equine serum BChE): 0.325 ± 0.004 µM

SMILES: COc1c(Br)cc(CC(=O)NCCCCNc2c3c(nc4ccccc24)CCCC3)cc1Br [Compound 10c, 2-(3,5-Dibromo-4-methoxyphenyl)-N-(4-((1,2,3,4-tetrahydroacridin-9-yl)amino)butyl)acetamide]
- IC50 (Electric eel AChE): 1.05 ± 0.161 µM
- IC50 (equine serum BChE): 0.195 ± 0.011 µM

SMILES: O=C(Cc1cc(Br)cc(Br)c1)NCCCCCCCNc1c2c(nc3ccccc13)CCCC2 [Compound 12h, 2-(3,5-Dibromophenyl)-N-(7-((1,2,3,4-tetrahydroacridin-9-yl)amino)heptyl)acetamide]
- IC50 (Electric eel AChE): 0.729 ± 0.021 µM
- IC50 (equine serum BChE): 0.204 ± 0.011 µM

SMILES: COc1c(Br)cc(CC(=O)NCCNc2c3c(nc4ccccc24)CCCC3)cc1Br [Compound 10a, 2-(3,5-Dibromo-4-methoxyphenyl)-N-(2-((1,2,3,4-tetrahydroacridin-9-yl)amino)ethyl)acetamide]
- IC50 (Electric eel AChE): 0.88 ± 0.074 µM
- IC50 (equine serum BChE): 0.23 ± 0.01 µM

SMILES: COc1ccc(CC(=O)NCCCCCCCNc2c3c(nc4ccccc24)CCCC3)cc1Br [Compound 12c, 2-(3-Bromo-4-methoxyphenyl)-N-(7-((1,2,3,4-tetrahydroacridin-9-yl)amino)heptyl)acetamide]
- IC50 (Electric eel AChE): 0.607 ± 0.045 µM
- IC50 (equine serum BChE): 0.152 ± 0.006 µM

SMILES: COc1c(Br)cc(CC(=O)NCCCCCCCNc2c3c(nc4ccccc24)CCCC3)cc1Br [Compound 10f, 2-(3,5-Dibromo-4-methoxyphenyl)-N-(7-((1,2,3,4-tetrahydroacridin-9-yl)amino)heptyl)acetamide]
- IC50 (Electric eel AChE): 0.314 ± 0.01 µM
- IC50 (equine serum BChE): 0.053 ± 0.007 µM

SMILES: COc1ccc2c3c1O[C@H]1C[C@@H](O)C=C[C@@]31CCN(C)C2 [Galantamine, reference compound]
- Inhibition of Aβ Aggregation (%) Self-Induced (Aβ1–42): 1.25 ± 0.46%
- Inhibition of Aβ Aggregation (%) Self-Induced (Aβ1–42; listed as galantamine): no significant inhibition

SMILES: Nc1c2c(nc3ccccc13)CCCC2 [Tacrine, reference compound]
- IC50 at 24 h (in vitro): 38.9 ± 0.53 µM

SMILES: O=C(Cc1cc(Br)ccc1F)NCCCCCCCNc1c2c(nc3ccccc13)CCCC2 [Compound 12j, 2-(5-Bromo-2-fluorophenyl)-N-(7-((1,2,3,4-tetrahydroacridin-9-yl)amino)heptyl)acetamide]
- IC50 (Electric eel AChE): 0.182 ± 0.006 µM
- IC50 (equine serum BChE): 0.064 ± 0.006 µM
- Type of AChE inhibition (AChE; Lineweaver-Burk plots): linear mixed-type
- Ki (AChE; [1]): 0.0975 µM
- Type of BChE inhibition (BChE; Lineweaver-Burk plots): linear mixed-type
- Ki (BChE; [1]): 0.00991 µM
- Inhibition of Aβ Aggregation (%) Self-Induced (Aβ1–42): 32.37 ± 0.62%
- IC50 at 24 h (in vitro): > 80 µM
- Inhibition of Aβ Aggregation (%) AChE-Induced (Aβ1–42 and AChE): 47.73 ± 4.35%

SMILES: COc1c(Br)cc(CC(=O)NCCCNc2c3c(nc4ccccc24)CCCC3)cc1Br [Compound 10b, 2-(3,5-Dibromo-4-methoxyphenyl)-N-(3-((1,2,3,4-tetrahydroacridin-9-yl)amino)propyl)acetamide]
- IC50 (Electric eel AChE): 0.771 ± 0.027 µM
- IC50 (equine serum BChE): 0.233 ± 0.013 µM

SMILES: O=C(Cc1cc(Cl)ccc1Br)NCCCCCCCNc1c2c(nc3ccccc13)CCCC2 [Compound 12k, 2-(2-Bromo-5-chlorophenyl)-N-(7-((1,2,3,4-tetrahydroacridin-9-yl)amino)heptyl)acetamide]
- IC50 (Electric eel AChE): 0.383 ± 0.054 µM
- IC50 (equine serum BChE): 0.104 ± 0.001 µM

SMILES: O=C(Cc1ccccc1)NCCCCCCCNc1c2c(nc3ccccc13)CCCC2 [Compound 12l, 2-Phenyl-N-(7-((1,2,3,4-tetrahydroacridin-9-yl)amino)heptyl)acetamide]
- IC50 (Electric eel AChE): 0.76 ± 0.092 µM
- IC50 (equine serum BChE): 0.68 ± 0.054 µM

SMILES: COc1ccc(CC(=O)NCCCCCCCNc2c3c(nc4ccccc24)CCCC3)c(Br)c1 [Compound 12a, 2-(2-Bromo-4-methoxyphenyl)-N-(7-((1,2,3,4-tetrahydroacridin-9-yl)amino)heptyl)acetamide]
- IC50 (Electric eel AChE): 0.324 ± 0.033 µM
- IC50 (equine serum BChE): 0.14 ± 0.004 µM

SMILES: O=C(Cc1ccccc1Br)NCCCCCCCNc1c2c(nc3ccccc13)CCCC2 [Compound 12d, 2-(2-Bromophenyl)-N-(7-((1,2,3,4-tetrahydroacridin-9-yl)amino)heptyl)acetamide]
- IC50 (Electric eel AChE): 0.304 ± 0.004 µM
- IC50 (equine serum BChE): 0.091 ± 0.017 µM

SMILES: COc1c(Br)cc(CC(=O)NCCCCCNc2c3c(nc4ccccc24)CCCC3)cc1Br [Compound 10d, 2-(3,5-Dibromo-4-methoxyphenyl)-N-(5-((1,2,3,4-tetrahydroacridin-9-yl)amino)pentyl)acetamide]
- IC50 (Electric eel AChE): 0.764 ± 0.016 µM
- IC50 (equine serum BChE): 0.1 ± 0.014 µM

SMILES: COc1c(Br)cc(CC(=O)NCCCCCCNc2c3c(nc4ccccc24)CCCC3)cc1Br [Compound 10e, 2-(3,5-Dibromo-4-methoxyphenyl)-N-(6-((1,2,3,4-tetrahydroacridin-9-yl)amino)hexyl)acetamide]
- IC50 (Electric eel AChE): 0.686 ± 0.045 µM
- IC50 (equine serum BChE): 0.054 ± 0.006 µM

SMILES: O=C(Cc1cccc(Br)c1)NCCCCCCCNc1c2c(nc3ccccc13)CCCC2 [Compound 12e, 2-(3-Bromophenyl)-N-(7-((1,2,3,4-tetrahydroacridin-9-yl)amino)heptyl)acetamide]
- IC50 (Electric eel AChE): 0.724 ± 0.003 µM
- IC50 (equine serum BChE): 0.149 ± 0.021 µM

SMILES: O=C(Cc1ccc(Br)cc1)NCCCCCCCNc1c2c(nc3ccccc13)CCCC2 [Compound 12f, 2-(4-Bromophenyl)-N-(7-((1,2,3,4-tetrahydroacridin-9-yl)amino)heptyl)acetamide]
- IC50 (Electric eel AChE): 0.597 ± 0.028 µM
- IC50 (equine serum BChE): 0.214 ± 0.004 µM

SMILES: COc1ccc(CC(=O)NCCCCCCCNc2c3c(nc4ccccc24)CCCC3)cc1 [Compound 12b, 2-(4-Methoxyphenyl)-N-(7-((1,2,3,4-tetrahydroacridin-9-yl)amino)heptyl)acetamide]
- IC50 (Electric eel AChE): 0.75 ± 0.054 µM
- IC50 (equine serum BChE): 0.694 ± 0.003 µM
